What is called IC50 is the concentration that inhibits the measured activity by half. The inhibition is the share of the control response that was lost under treatment.

Data on 6 molecules can be found in US20040058983A1, “Plan-derived and synthetic phenolic compounds and plant extracts, effective in the treatment and prevention of chlamydial infections” (priority 2000, published 2004).

Where only a bound is given, the exact number is not on record here.

For series [1], the system named is C. pneumoniae K7 strain (clinical isolate). The series is described as follows: Direct anti-chlamydial effect (inhibition of formation of inclusions), HL host cells. The class given is cell-based. Particulars: for Inhibition % of the DMSO control: formation of inclusions. The source says: The Direct Anti-Chlamydial Effect of Plant-Derived Phenolic Compounds (As Inhibition of Formation of Inclusions)/C. pneumoniae K7 Strain (Clinical Isolate)
(§1) The cultivated HL cells are infected with C. pneumoniae EB's. The EB's which have invaded the cell are changed into the metabolically active reticulate body (RB) which are dividing by binary fission in the endosome vacuole or inclusion.
(§2) After a certain time (about 72 hr) the C. pneumoniae RB's are condensing back into EB's, after which the inclusions are broken, the host cells are broken and the EB's are liberated. In this method the intention is to verify the inclusions before the breaking up of the host cells.
(§3) As the host cell of C. pneumoniae in in vitro conditions HL cells are used. As the host cells of C. trachomatis in in vitro conditions McCoy cells often are used.
(§4) On the day preceding the infection the host cells are inoculated on a 24-well plate: the cells are harvested by trypsinisation, they are suspended in ca. 5 ml of the nutrition liquid and counted in a Burker's chamber. Each well are seeded using a concentration of 250000-400000 cells/well for cultivation. Before the addition of the cells to the well is if necessary round cover glass (diameter 13 mm) put for staining. Nutrition liquid is added so that the volume is 1 ml/well. On the following day the cells are infected with the desired bacterium.
(§5) Solution to be used in the infection and containing chlamydiae particles is mixed throughout. The old nutrition liquid is aspirated away. By the infection the inoculum which has been stored at −70° C. is diluted to an IFU concentration of ca. 10^3 so that the volume of the solution is at least 200 μl/well on a 24-well plate. The cells are infected by centrifuging at 1600 rpm (550×g)/1 hr. The nutrition medium is aspirated away and changed to a maintenance medium containing cyclohexamide and also containing the studied compound (DMSO concentration 0.2%), 1 ml/well. The cells are incubated in a 5% CO2 atmosphere at +35° C. The cells infected with C. pneumoniae are incubated for 3 days. After 2-3 days the maintenance medium is removed and the cells washed with 1×1 ml of PBS. To the wells 200 μl of SPG are added for further infection, harvested with a pipette tip and transferred into tubes. This is used for infecting new cells in the same way as above to test the inhibition of infectivity (chlamydiasidic effect).
(§6) The nutrition medium, which is above the cover glass left for staining, is aspirated away. The infected cells are fixed on the cover glass with methanol for 10 min. The cover glass is removed from the well and -transferred onto a suitable fluorescein-conjugated monoclonal antibody on Parafilm in a moist chamber with the cell-containing side down. The cover glass is incubated for 30 min at +37° C. and washed twice with PBS and once with water. Finally it is dried. The cover glass is put with the cell-containing side down on an object glass containing a fixative (e.g. Mounting medium). When viewed under the fluorescent microscope, cell culture specimens infacted with chlamydiae show a characteristic apple-green fluorescence of inclusions against a red counterstained background.

Series [2] has as its system C. trachomatis. The series is described as follows: Direct anti-chlamydial effect on C. trachomatis, cultivation in McCoy cells. The class given is cell-based. Conditions: for Inhibition % of the DMSO control: McCoy cells; for Inhibition % of the DMSO control (pre-treated): McCoy cells pre-treated 1 day. How it is done: C. trachomatis, cultivation in McCoy cells. The test procedure otherwise the same as with C. pneumoniae.
as §3, §4, §5, §6

In series [3] the test system is Ca^2+ intake in the cell. The series is described as follows: Effect of the compounds on the calcium influx (Ca2+ intake) to the cell. Format: cell-based. Particulars: compound 20 μg/ml; − = decrease, + = increase. From the text: (§7) In the following Table I some of the preferred plant-derived phenolic compounds according to the present invention, the effect of the compounds on the calcium influx to the cell, the antioxidant effect as well as the chemical structure of the compounds are presented.

Series [4] has as its system C. pneumoniae K7 strain (clinical isolate). The series is described as follows: Direct anti-chlamydial effect (inhibition of formation of inclusions), HL host cells. Particulars: host cells incubated 1 day with compound before infection. The class given is cell-based.
Series [5] can be described thus: Antioxidant effect, IC50 against DPPH. Format: biochemical. Particulars: read-out: IC50 [moles L^−1] against DPPH′.
Source text: as §7
In general terms: DPPH is a stable violet radical that fades when it is reduced.

In series [6] the test system is C. pneumoniae. The series is described as follows: Inhibition of the infectivity (chlamydiasidic effect), re-infection of new cells. The class given is cell-based. Particulars: for Inhibition % of the DMSO control (pre-treated): host cells pre-treated 1 day. The protocol: Inhibition of the Infectivity/C. pneumoniae
as §5, §6

For series [7], the system named is C. pneumoniae. The series is described as follows: Direct anti-chlamydial effect of compounds and mixtures on C. pneumoniae (Example 5). The class given is cell-based. Conditions: 50 μM; for inhibition at 50 µM: Chlamydia pneumoniae, read-out: Inhibition %. The protocol:
Direct Anti-Chlamydial Effect of Plant-Derived Phenolic Compounds, Certain Synthetic Compounds and Mixtures on C. pneumoniae
The concentration used was 50 μM.
as §1, §2, §4, §5, §6

Series [8] concerns HL cells. Put plainly: Toxicity towards the host cells, Trypan blue staining, no infection. The class given is cell-based, human. How it is done: The determination was performed as in the previous tests but without any infection. The viability was determined with Trypan blue staining.

On to `O=c1c(O)c(-c2ccc(O)cc2O)oc2cc(O)cc(O)c12` [Morin], for which the “Inhibition % of the DMSO control” value in series [1] (0.5 μM) came out at 80%; in series [1] (50 μM), 99%; in series [2] (0.5 μM), 0%; in series [2] (50 μM), 0%; in series [6] (0.5 μM) it was 81%; in series [6] (50 μM), 94%. For the same molecule, the “Inhibition of the growth of C. pneumoniae (in words)” value in series [1] (concentration of 0.5-50 μg) is recorded as “inhibited the growth”. For the same molecule, the “Inhibition % of the DMSO control (pre-treated)” value worked out at 100% in series [2] (0.5 μM); 100% in series [2] (50 μM); 62% in series [4] (0.5 μM); 96% in series [4] (50 μM); 53% in series [6] (0.5 μM); 76% in series [6] (50 μM). The “Effect on C. trachomatis (in words)” value in series [2] (pretreated host cells) is given as “particularly effective”. The “Effect on Ca^2+ intake [%]” value in series [3] is on record as “+48.0%”. The half-maximal inhibitory concentration (IC50) in series [5] came out at 23.9 µM. Moreover, the Inhibition % in series [7] was found to be 100%. Further, the “Toxicity test HL-C” value in series [8] (0.005 μM) is listed as 8.3%; in series [8] (0.05 μM), 9.0%; in series [8] (0.5 μM) it was 8.4%; in series [8] (5 μM), 8.3%; in series [8] (50 μM), 11.2%. Further, the “Toxicity test HL-C (pre-treated)” value was found to be 14.4% in series [8] (0.005 μM); 8.1% in series [8] (0.05 μM); 6.4% in series [8] (0.5 μM); 12.7% in series [8] (5 μM); 9.7% in series [8] (50 μM).
For `COc1cc(C(=O)O)cc(OC)c1O` [Syringic acid], in series [3], the inhibition at 20 µg/mL came to 10.9%. In addition, in series [5], the IC50 amounted to 32.6 µM. The inhibition at 50 µM in series [7] came to 32%.
Consider `O=c1c(-c2ccc(O)cc2)coc2cc(O)ccc12` [Daidzein], for which, in series [3], the “Effect on Ca^2+ intake [%]” value is listed as −26.2%. Also, in series [5], the half-maximal inhibitory concentration (IC50) is more than 3930 µM. Moreover, in series [7], the Inhibition % stood at 51%.
With `O=C1C[C@@H](c2ccc(O)cc2)Oc2cc(O)cc(O)c21` [Naringenin], the inhibition at 20 µg/mL in series [3] is 56.3%. In addition, the IC50 in series [5] is more than 3670 µM. The inhibition at 50 µM in series [7] was 16%.
Taken in the same sequence, the figures for `O=C(O)c1cc(O)c(O)c(O)c1` [Gallic acid] were 5.33%, 21.5 µM and 27%.
For the molecule `C[C@@H]1O[C@@H](Oc2c(-c3ccc(O)c(O)c3)oc3cc(O)cc(O)c3c2=O)[C@H](O)[C@H](O)[C@H]1O` [Quercitrin], in series [3], the “Effect on Ca^2+ intake [%]” value is “+20.1%”. Besides, the IC50 in series [5] came out at 12.9 µM. Moreover, the Inhibition % in series [7] came to 50%.
